# According to article PMC8550792, “Evolution of kinase polypharmacology across HSP90 drug discovery” (Cell Chemical Biology, 2021):
# Columns and labels:
# Test in all cases: biochemical
# Assay type in all cases: biochemical
# 382 unique human kinases [1] = target: T1, 382 unique human kinases (Homo sapiens, UniProt P00519, Y253F); settings: ABL1 (Y253F), [ATP] 15 µM, compound 10 uM; for remaining activity at 10 µM: read-out: % Enzyme Activity (relative to DMSO controls)
# T1 construct: purchased Reaction Biology (HotSpot contract assay)
# 382 unique human kinases [2] = target: T2, 382 unique human kinases (Homo sapiens, UniProt Q8IY84); settings: NIM1, 10 uM; for remaining activity at 10 µM: read-out: % Enzyme Activity (relative to DMSO controls)
# T2 construct: purchased Reaction Biology (HotSpot contract assay)
# T2 sequence (Q8IY84 whole entry): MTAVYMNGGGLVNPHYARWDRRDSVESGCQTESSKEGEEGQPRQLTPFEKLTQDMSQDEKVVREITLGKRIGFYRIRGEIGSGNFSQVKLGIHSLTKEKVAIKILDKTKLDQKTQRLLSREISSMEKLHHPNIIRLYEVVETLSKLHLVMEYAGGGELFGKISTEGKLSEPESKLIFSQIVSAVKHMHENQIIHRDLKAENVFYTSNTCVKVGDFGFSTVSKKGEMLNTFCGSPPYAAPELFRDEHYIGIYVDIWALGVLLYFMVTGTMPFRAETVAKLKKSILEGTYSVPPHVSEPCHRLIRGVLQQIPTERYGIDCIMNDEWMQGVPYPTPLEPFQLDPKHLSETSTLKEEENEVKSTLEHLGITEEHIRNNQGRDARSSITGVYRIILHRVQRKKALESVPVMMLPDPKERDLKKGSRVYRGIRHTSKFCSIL
# 382 unique human kinases [3] = target: T3, 382 unique human kinases (Homo sapiens, UniProt P10721, D816Y); settings: c-Kit (D816Y), [ATP] 10 µM, compound 10 uM; for remaining activity at 10 µM: read-out: % Enzyme Activity (relative to DMSO controls)
# T3 construct: purchased Reaction Biology (HotSpot contract assay)
# T3 sequence (P10721 26-976 D816Y): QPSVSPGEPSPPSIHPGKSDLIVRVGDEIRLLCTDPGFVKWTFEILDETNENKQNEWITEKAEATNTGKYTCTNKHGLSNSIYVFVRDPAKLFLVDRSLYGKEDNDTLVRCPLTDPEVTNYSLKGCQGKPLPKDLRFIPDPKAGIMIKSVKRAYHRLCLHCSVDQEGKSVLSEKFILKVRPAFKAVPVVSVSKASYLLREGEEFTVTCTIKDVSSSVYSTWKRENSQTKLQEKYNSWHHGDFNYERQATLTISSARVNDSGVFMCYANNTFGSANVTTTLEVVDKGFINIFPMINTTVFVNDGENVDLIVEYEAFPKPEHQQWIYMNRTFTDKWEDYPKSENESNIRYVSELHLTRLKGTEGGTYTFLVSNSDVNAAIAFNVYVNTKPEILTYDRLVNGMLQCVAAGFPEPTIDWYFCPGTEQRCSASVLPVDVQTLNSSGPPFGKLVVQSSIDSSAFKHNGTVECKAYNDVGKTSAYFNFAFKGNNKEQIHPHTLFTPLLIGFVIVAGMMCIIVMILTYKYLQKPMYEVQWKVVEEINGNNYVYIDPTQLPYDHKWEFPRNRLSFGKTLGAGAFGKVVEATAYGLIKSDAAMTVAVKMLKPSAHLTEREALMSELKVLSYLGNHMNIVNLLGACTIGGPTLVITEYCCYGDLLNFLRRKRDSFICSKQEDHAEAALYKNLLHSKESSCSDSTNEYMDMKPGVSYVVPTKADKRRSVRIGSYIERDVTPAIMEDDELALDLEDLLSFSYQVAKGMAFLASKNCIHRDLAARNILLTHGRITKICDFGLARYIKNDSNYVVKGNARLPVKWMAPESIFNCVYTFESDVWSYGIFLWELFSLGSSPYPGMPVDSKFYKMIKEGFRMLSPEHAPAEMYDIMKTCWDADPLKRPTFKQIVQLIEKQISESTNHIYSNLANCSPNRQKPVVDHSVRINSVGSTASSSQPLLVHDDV
# 382 unique human kinases [4] = target: T4, 382 unique human kinases (Homo sapiens, UniProt Q7L7X3); settings: kinase TAOK1, compound 10 uM; for remaining activity at 10 µM: read-out: % Enzyme Activity (relative to DMSO controls)
# T4 construct: purchased Reaction Biology (HotSpot contract assay)
# T4 sequence (Q7L7X3 1-1001): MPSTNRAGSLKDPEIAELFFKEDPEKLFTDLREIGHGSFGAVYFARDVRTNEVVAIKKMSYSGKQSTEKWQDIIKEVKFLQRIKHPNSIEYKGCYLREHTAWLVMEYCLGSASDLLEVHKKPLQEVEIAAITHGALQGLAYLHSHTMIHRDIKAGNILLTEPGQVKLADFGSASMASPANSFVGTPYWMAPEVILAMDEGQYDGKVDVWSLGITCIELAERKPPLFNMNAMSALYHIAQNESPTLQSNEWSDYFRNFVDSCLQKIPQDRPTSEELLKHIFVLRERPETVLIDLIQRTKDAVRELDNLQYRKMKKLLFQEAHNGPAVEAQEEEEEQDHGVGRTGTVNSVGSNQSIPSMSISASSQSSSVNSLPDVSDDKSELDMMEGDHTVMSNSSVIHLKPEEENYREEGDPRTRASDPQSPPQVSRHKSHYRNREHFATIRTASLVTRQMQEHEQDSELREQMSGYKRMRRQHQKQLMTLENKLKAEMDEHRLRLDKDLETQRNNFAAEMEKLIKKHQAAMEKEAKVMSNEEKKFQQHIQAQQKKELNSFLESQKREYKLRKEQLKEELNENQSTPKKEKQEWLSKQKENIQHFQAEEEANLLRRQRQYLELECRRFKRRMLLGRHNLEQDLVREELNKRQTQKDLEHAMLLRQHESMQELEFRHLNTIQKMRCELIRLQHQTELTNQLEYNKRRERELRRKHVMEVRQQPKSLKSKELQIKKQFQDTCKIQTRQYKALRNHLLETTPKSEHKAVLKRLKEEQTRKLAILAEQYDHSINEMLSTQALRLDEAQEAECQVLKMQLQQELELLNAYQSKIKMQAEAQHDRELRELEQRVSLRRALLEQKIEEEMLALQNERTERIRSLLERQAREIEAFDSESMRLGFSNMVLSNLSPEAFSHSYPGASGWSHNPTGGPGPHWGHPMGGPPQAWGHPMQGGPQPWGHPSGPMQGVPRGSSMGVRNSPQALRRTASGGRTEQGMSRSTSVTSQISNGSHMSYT
# 382 unique human kinases [5] = target: T5, 382 unique human kinases (Homo sapiens, UniProt P08581, Y1235D); settings: c-MET (Y1235D), 10 uM; for remaining activity at 10 µM: read-out: % Enzyme Activity (relative to DMSO controls)
# T5 construct: purchased Reaction Biology (HotSpot contract assay)
# 382 unique human kinases [6] = target: T6, 382 unique human kinases (Homo sapiens, UniProt Q99986); settings: VRK1, 10 uM; for remaining activity at 10 µM: read-out: % Enzyme Activity (relative to DMSO controls)
# T6 construct: purchased Reaction Biology (HotSpot contract assay)
# T6 sequence (Q99986 1-396): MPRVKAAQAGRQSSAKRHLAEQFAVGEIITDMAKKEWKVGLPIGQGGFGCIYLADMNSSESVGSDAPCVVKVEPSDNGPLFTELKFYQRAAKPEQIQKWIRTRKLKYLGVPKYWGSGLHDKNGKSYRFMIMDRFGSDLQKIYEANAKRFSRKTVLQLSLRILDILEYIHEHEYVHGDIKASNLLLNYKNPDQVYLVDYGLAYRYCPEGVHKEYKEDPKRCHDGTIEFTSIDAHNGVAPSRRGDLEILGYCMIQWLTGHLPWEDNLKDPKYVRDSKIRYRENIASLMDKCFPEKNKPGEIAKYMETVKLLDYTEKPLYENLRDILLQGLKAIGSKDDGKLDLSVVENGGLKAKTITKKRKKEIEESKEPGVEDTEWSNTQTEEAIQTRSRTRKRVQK
# 382 unique human kinases [7] = target: T7, 382 unique human kinases (Homo sapiens, UniProt P07949, A883F); settings: kinase RET (A883F), compound 10 uM; for remaining activity at 10 µM: read-out: % Enzyme Activity (relative to DMSO controls)
# T7 construct: purchased Reaction Biology (HotSpot contract assay)
# T7 sequence (P07949 29-1114 A883F): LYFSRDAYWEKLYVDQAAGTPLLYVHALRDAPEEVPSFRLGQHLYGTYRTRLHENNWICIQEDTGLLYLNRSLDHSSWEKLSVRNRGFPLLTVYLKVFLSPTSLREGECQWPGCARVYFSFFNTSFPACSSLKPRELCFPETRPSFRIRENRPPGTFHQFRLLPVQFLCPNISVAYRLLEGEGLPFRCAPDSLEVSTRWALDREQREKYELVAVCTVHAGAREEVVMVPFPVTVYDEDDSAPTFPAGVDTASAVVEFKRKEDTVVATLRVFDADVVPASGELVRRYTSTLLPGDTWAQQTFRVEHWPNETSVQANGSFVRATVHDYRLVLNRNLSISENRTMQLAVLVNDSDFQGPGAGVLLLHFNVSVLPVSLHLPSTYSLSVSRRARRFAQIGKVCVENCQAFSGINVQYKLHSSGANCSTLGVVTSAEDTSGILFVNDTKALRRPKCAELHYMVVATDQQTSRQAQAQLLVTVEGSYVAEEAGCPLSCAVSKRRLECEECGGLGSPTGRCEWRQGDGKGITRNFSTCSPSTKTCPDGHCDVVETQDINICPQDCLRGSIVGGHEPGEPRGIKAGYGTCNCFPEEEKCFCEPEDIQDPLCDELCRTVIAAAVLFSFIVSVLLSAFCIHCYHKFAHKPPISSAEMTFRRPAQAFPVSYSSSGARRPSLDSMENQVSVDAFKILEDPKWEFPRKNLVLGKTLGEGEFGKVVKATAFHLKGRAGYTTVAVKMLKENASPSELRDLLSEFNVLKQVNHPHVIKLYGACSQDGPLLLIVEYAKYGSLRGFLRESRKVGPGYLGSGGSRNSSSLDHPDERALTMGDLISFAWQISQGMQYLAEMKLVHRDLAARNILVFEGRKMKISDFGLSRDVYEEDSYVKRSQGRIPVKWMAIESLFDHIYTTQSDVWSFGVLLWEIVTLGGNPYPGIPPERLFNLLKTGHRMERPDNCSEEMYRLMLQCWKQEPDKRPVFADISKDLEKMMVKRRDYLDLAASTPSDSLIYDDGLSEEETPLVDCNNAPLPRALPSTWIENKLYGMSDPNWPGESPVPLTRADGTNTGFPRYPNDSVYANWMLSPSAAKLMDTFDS
# 382 unique human kinases [8] = target: T8, 382 unique human kinases (Homo sapiens, UniProt Q9NRM7); settings: LATS2, 10 uM; for remaining activity at 10 µM: read-out: % Enzyme Activity (relative to DMSO controls)
# T8 construct: purchased Reaction Biology (HotSpot contract assay)
# T8 sequence (Q9NRM7 1-1088): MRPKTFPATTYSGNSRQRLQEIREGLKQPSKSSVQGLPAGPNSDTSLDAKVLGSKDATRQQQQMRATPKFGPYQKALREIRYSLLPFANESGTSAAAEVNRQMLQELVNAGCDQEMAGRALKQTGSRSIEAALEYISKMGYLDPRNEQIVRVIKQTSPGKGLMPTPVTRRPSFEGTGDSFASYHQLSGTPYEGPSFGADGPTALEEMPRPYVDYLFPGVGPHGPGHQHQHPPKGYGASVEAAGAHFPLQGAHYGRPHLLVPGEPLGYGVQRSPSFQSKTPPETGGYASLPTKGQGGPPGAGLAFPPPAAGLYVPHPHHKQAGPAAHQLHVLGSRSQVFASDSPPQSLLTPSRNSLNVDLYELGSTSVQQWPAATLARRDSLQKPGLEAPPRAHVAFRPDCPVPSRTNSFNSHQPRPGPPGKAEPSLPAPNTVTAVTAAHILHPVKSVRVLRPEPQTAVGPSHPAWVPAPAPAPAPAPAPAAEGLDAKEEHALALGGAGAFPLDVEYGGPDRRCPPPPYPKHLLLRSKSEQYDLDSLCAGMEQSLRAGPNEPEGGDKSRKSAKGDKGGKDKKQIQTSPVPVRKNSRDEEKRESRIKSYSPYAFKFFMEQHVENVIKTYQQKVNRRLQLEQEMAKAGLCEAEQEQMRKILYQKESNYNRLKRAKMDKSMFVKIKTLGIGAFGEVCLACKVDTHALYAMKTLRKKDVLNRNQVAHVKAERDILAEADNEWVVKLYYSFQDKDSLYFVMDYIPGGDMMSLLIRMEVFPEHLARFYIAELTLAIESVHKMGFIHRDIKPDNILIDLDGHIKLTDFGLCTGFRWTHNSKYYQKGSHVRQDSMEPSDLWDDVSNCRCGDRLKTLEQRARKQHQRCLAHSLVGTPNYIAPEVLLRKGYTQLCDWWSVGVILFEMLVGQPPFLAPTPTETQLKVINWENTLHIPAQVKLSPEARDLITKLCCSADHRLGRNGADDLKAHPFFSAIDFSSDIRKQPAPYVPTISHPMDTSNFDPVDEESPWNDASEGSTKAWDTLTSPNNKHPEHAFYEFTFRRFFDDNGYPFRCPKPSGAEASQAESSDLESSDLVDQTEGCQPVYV
Structure (SMILES),% Enzyme Activity (relative to DMSO controls) (382 unique human kinases [1]) [%],remaining activity at 10 µM (382 unique human kinases [1]) [%],% Enzyme Activity (relative to DMSO controls) (382 unique human kinases [2]) [%],remaining activity at 10 µM (382 unique human kinases [2]) [%],% Enzyme Activity (relative to DMSO controls) (382 unique human kinases [3]) [%],remaining activity at 10 µM (382 unique human kinases [3]) [%],remaining activity at 10 µM (382 unique human kinases [4]) [%],remaining activity at 10 µM (382 unique human kinases [5]) [%],remaining activity at 10 µM (382 unique human kinases [6]) [%],remaining activity at 10 µM (382 unique human kinases [7]) [%],remaining activity at 10 µM (382 unique human kinases [8]) [%],% Enzyme Activity (relative to DMSO controls) (382 unique human kinases [4]) [%],% Enzyme Activity (relative to DMSO controls) (382 unique human kinases [5]) [%],% Enzyme Activity (relative to DMSO controls) (382 unique human kinases [6]) [%],% Enzyme Activity (relative to DMSO controls) (382 unique human kinases [7]) [%],% Enzyme Activity (relative to DMSO controls) (382 unique human kinases [8]) [%]
CCNC(=O)c1noc(-c2cc(C(C)C)c(O)cc2O)c1-c1ccc(CN2CCOCC2)cc1 [Luminespib],4.48,5.44,99.73,99.8,53.55,57.9,,,,,,,,,,
CC(C)c1cc(-c2n[nH]c(=O)n2-c2ccc3c(ccn3C)c2)c(O)cc1O [Ganetespib (STA9090)],,,,,,,88.8,102,75.3,83.7,74.3,,,,,
CCNC(=O)c1noc(-c2cc(C(C)C)c(O)cc2O)c1-c1ccc(CN2CCOCC2)cc1 [Luminespib (AUY-922)],,,,,,,95,73.3,87,96.4,94.8,92.28,71.05,84.23,95.34,91.88
CC(C)c1cc(-c2n[nH]c(=O)n2-c2ccc3c(ccn3C)c2)c(O)cc1O [Ganetespib],,3.72,,90.5,,32.1,,,,,,,,,,
